Results reported in patent US10428055B2, “Substituted piperidines having GPR119 agonistic activity” (DONG-A ST CO., LTD., priority 2014, dated 2019).

Target: T1, Human GPR119 (Homo sapiens, UniProt Q8TDV5)
T1 construct: host or cells: HEK293 (ATCC)
T1 sequence (Q8TDV5 1-335): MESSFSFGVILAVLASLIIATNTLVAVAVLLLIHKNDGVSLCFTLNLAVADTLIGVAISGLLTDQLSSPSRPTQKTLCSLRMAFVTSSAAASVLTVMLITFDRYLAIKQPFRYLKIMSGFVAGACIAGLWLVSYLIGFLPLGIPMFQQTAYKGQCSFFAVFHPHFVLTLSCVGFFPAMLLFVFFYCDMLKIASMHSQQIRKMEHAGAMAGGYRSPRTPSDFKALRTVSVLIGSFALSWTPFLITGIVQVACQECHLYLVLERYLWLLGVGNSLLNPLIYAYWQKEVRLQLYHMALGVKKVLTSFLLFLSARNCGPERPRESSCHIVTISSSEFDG
Test: Human GPR119 activation assay (cAMP, HTRF)
Assay type: cell-based
Conditions: 1 h, HEK293 cells transiently expressing human GPR119, relative to maximum effect of OEA, read-out: hGPR119 activation ability (cAMP assay) Relative Response % vs OEA; for Emax at 0.001 µM: 1 nM; for Emax at 0.01 µM: 10 nM
Source text: <Experimental Example 1>Human GPR119 activation assay
Human GPR119 was temporarily expressed on cells, thereby quantifying the amount of cyclic adenosine 3′,5′-monophosphate (cAMP) increased upon activating GPR119 by the compound of the present invention, using the product from Cysbio, by a method of HTRF (homogeneous time resolved fluorescence), and such quantification was used to refer to efficacy on GPR119 activation.
Human GPR119 expression vector (Origene) was overexpressed in […] renal epithelial cells (HEK293) (ATCC), and the cells were stabilized for 48 hours. With a solution of 11.1 mM glucose, 0.1% bovine serum albumin, and 0.5 mM IBMX (3-isobutyl-1-methylxanthine) which is a phosphodiesterase inhibitor being added to a KRBH (Krebs-Ringer Bicarbonate HEPES; Hou ZQ. et al., Mol Cell Endocrinol, 2008(291):71-78) buffer, the cells were pre-treated for 10 minutes. Thereafter, the cells were treated with the same solution containing a drug for 60 minutes, then the supernatant was removed, and the increase in cAMP in cells was quantified using a Cysbio cAMP HiRange kit.
As to the maximum efficacy of compounds tested, multiple concentration assessment for the compounds of the present invention was carried out, thereby assessing the relative activation level (%) to the maximum effect of oleoylethanolamide (OEA), an endogenous ligand of GPR119.

SMILES | Emax at 0.001 µM [%] | Emax at 0.01 µM [%]
Cc1nc(-c2c(F)cc(OCCCC3CCN(c4nc(C(C)C)no4)CC3)cc2F)no1 [Example 39, 3-(2,6-difluoro-4-(3-(1-(3-isopropyl-1,2,4-oxadiazol-5-yl)piperidin-4-yl)propoxy)phenyl)-5-methyl-1,2,4-oxadiazole] | 120 | 201
CC(C)c1noc(N2CCC(CCCOc3cc(F)c(-c4noc(CO)n4)c(F)c3)CC2)n1 [Example 41, (3-(2,6-difluoro-4-(3-(1-(3-isopropyl-1,2,4-oxadiazol-5-yl)piperidin-4-yl)propoxy)phenyl)-1,2,4-oxadiazol-5-yl)methanol] | 74.4 | 203
Cc1nnc(-c2c(F)cc(OCCCC3CCN(c4cnc(Cl)cn4)CC3)cc2F)o1 [Example 49, 2-(4-(3-(1-(5-chloropyrazin-2-yl)piperidin-4-yl)propoxy)-2,6-difluorophenyl)-5-methyl-1,3,4-oxadiazole] | 83.4 | 121
CCCc1noc(N2CCC(CCCOc3cc(F)c(-c4nnc(C)o4)c(F)c3)CC2)n1 [Example 52, 5-(4-(3-(3,5-difluoro-4-(5-methyl-1,3,4-oxadiazol-2-yl)phenoxy)propyl)piperidin-1-yl)-3-propyl-1,2,4-oxadiazole] | 191 | 295
CCCc1noc(N2CCC(CCCOc3cc(F)c(-c4nnc(CC)o4)c(F)c3)CC2)n1 [Example 53, 5-(4-(3-(3,5-difluoro-4-(5-ethyl-1,3,4-oxadiazol-2-yl)phenoxy)propyl)piperidin-1-yl)-3-propyl-1,2,4-oxadiazole] | 94.3 | 154
CCCc1noc(N2CCC(CCCOc3cc(F)c(-c4nnc(C(C)C)o4)c(F)c3)CC2)n1 [Example 54, 5-(4-(3-(3,5-difluoro-4-(5-isopropyl-1,3,4-oxadiazol-2-yl)phenoxy)propyl)piperidin-1-yl)-3-propyl-1,2,4-oxadiazole] | 75.1 | 241
CCc1nnc(-c2c(F)cc(OCCCC3CCN(c4nc(C(C)C)no4)CC3)cc2F)o1 [Example 56, 5-(4-(3-(4-(5-ethyl-1,3,4-oxadiazol-2-yl)-3,5-difluorophenoxy)propyl)piperidin-1-yl)-3-isopropyl-1,2,4-oxadiazole] | 265 | 373
Cc1nnc(-c2c(F)cc(OCCCC3CCN(c4nc(CC(F)(F)F)no4)CC3)cc2F)o1 [Example 58, 5-(4-(3-(3,5-difluoro-4-(5-methyl-1,3,4-oxadiazol-2-yl)phenoxy)propyl)piperidin-1-yl)-3-(2,2,2-trifluoroethyl)-1,2,4-oxadiazole] | 699 | –

More lines, now with the values ahead:

Emax at 0.001 µM [%] | Emax at 0.01 µM [%] | SMILES
493 | 830 | CCc1cnc(N2CCC(CCCOc3cc(F)c(-c4nnc(C(C)C)o4)c(F)c3)CC2)nc1 [Example 44, 2-(4-(3-(1-(5-ethylpyrimidin-2-yl)piperidin-4-yl)propoxy)-2,6-difluorophenyl)-5-isopropyl-1,3,4-oxadiazole]
156 | 330 | CCc1cnc(N2CCC(CCCOc3cc(F)c(-c4nnc(NC(C)C)o4)c(F)c3)CC2)nc1 [Example 45, 5-(4-(3-(1-(5-ethylpyrimidin-2-yl)piperidin-4-yl)propoxy)-2,6-difluorophenyl)-N-isopropyl-1,3,4-oxadiazol-2-amine]
163 | 441 | CC(C)c1nnc(-c2c(F)cc(OCCCC3CCN(c4ncc(C(F)(F)F)cn4)CC3)cc2F)o1 [Example 48, 2-(2,6-difluoro-4-(3-(1-(5-(trifluoromethyl)pyrimidin-2-yl)piperidin-4-yl)propoxy)phenyl)-5-isopropyl-1,3,4-oxadiazole]
120 | 308 | CCc1nnc(-c2c(F)cc(OCCCC3CCN(c4cnc(Cl)cn4)CC3)cc2F)o1 [Example 50, 2-(4-(3-(1-(5-chloropyrazin-2-yl)piperidin-4-yl)propoxy)-2,6-difluorophenyl)-5-ethyl-1,3,4-oxadiazole]
